Data reported in patent publication US20010053795A1, “Paradoxical pharmacology” (priority 2000, published 2001).

Tested on: spontaneously hypertensive rat (SHR)
Test: Blood pressure (tail-cuff) in spontaneously hypertensive rats after L-NAME infusion
Type: in vivo
Conditions: L-NAME 10 ml/kg/10 min for 10 min
Protocol: To determine a possible mechanism underlying the decrease in blood pressure after infusion of NE/E, L-NAME (N(omega)-nitro-L-arginine methyl ester), which is a nitric oxide synthase inhibitor, was infused at a rate of 10 ml/kg/10 min for a total 10 min. After infusion of the L-NAME, blood pressure was measured via the tail-cuff method. FIG. 3 illustrates the effect of the blood pressure after infusion of L-NAME.
Nitric oxide is tonically released by the activity of the constitutive endothelial and neuronal NO synthases (NOS). Nitric oxide is vasodilatory, and tonically produced NO maintains low blood pressure. During exercise, there is an increase in norepinephrine and an increase in nitric oxide production. […] The increase in production of nitric oxide is due to an activation of nitric oxide synthase, which in turn increase the levels of nitric oxide.

SMILES: COC(=O)[C@@H](N)CCCNC(=N)N[N+](=O)[O-] [L-NAME, N(omega)-nitro-L-arginine methyl ester]
- effect on blood pressure after L-NAME infusion (SHR treated with NE/E for 28 days): increase in blood pressure
- effect on blood pressure after L-NAME infusion (SHR treated with vehicle for 28 days (controls)): further decrease in the blood pressure
